Format in all cases: cell-based
The target in assay [1] is Ba/F3-EGFR-N771_P772insH cells (Homo sapiens, UniProt P00533, INS771H, cells depend on it). Description: Ba/F3 cell survival assay, EGFR N771_P772insH. The following applies: without IL-3, without EGF, 48 h; read-out: BA/F3 (EGFR N771_772 insH) IC50. The protocol:
(§1) 293T cells from ATCC were transfected with pBABEpuro expression constructs for mutant EGFR (V769_D770insASV, D770_N771insNPG, N771_P772insH, H773_V774insNPH, E746_A750del, L858R, D770_N771insSVD C797S, E746_A750del C797S, L858R C797S, L861Q) or mutant ERBB2 (A775_G776insYVMA) and pCL-Eco packaging vector using Fugene-6 transfection reagent from Promega. Plates were incubated at 37° C. for 48 h. Retrovirus was harvested by filtering the media supernatant through a 0.45 μm filter.
(§2) Ba/F3 cells purchased from DSMZ were grown in RPMI+10% FBS+10 ng/mL IL-3 and infected with filtered retroviral supernatant at a 1:2 dilution. Polybrene was added to a concentration of 8 μg/mL, plates were spun for 90 min, and incubated overnight at 37° C. 2 μg/mL puromycin was added to the infected cells 24 h after infection and cells were continually grown in the presence of puromycin and 10 ng/mL IL-3. Following stably expressing Ba/F3 cell lines were generated: Ba/F3-EGFR-V769_D770insASV, Ba/F3-EGFR-D770_N771insNPG, Ba/F3-EGFR-N771_P772insH, Ba/F3-EGFR-H773_V774insNPH, Ba/F3-EGFR-E746_A750del, Ba/F3-EGFR-L858R, Ba/F3-EGFR-D770_N771 insSVD C797S, Ba/F3-EGFR-E746_A750del C797S, Ba/F3-EGFR-L858R C797S, Ba/F3-EGFR L861Q and Ba/F3-ERBB2-A775_G776insYVMA (Ba/F3-vector-control).
(§3) For cell survival assays, Ba/F3 cells were grown to a density of 1-2 million cells per mL, spun down and resuspended in media without IL-3, and replated at a concentration 200,000-500,000 cells per mL. The cells ectopically expressing WT EGFR plated with 10 ng/mL Millipore Culture grade EGF and Ba/F3 cells containing mutant EGFR or Mutant ERBB2 were cultivated without EGF. The cells ectopically expressing pBABEpuro empty vector were plated with 10 ng/mL IL-3.
(§4) 2 days later, cells were plated in 50 μL in a 384 well plate at a concentration of 4000 cells per well for cells assayed in the absence of IL-3 and 2000 cells per well for cells assayed in the presence of IL-3. 100 nL of compound was added to each well using a 100 nL pin head, and plates were incubated at 37° C. for 48 h.
(§5) Cell viability was measured by adding 20 μL of Cell Titer-Glo Luminescent Cell Viability Reagent diluted 1:3 in PBS. Plates were sealed with Perkin Elmer Top-Seal, inverted several times to mix, and immediately centrifuged at 1000 rpm for 2 min. Plates were incubated in low light conditions for 8-10 min and luminescence was measured.

The target in assay [2] is Ba/F3-EGFR-H773_V774insNPH cells (Homo sapiens, UniProt P00533, DUP771-773, cells depend on it). Description: Ba/F3 cell survival assay, EGFR H773_V774insNPH. The following applies: read-out: BA/F3 (EGFR 773_774insNPH) IC50 [mol/l]; without IL-3, without EGF, 48 h. The protocol: as §1, §2, §3, §4, §5
The next assay has as its target Ba/F3-EGFR-WT cells (Homo sapiens, UniProt P00533). Description: Ba/F3 cell survival assay (Cell Titer-Glo), WT EGFR. The settings on record: without IL-3, with 10 ng/mL EGF, 48 h; read-out: BA/F3 (wild type) IC50. The method in brief: (§6)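 Ba/F3 cells stably expressing WT EGFR or EGFR-insSVD from retroviral transduction were grown without IL-3 on 10 ng/mL EGF. Cells were plated at 4000 cells/well, treated with compound for 48 h at 37° C, and viability was read by CellTiter-Glo luminescence.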

The target of assay [3] is Ba/F3-EGFR-D770_N771insNPG cells (Homo sapiens, UniProt P00533, INS772GNP, cells depend on it). Description: Ba/F3 cell survival assay, EGFR D770_N771insNPG. The settings on record: without IL-3, without EGF, 48 h; read-out: BA/F3 (insNPG) IC50. As to the method:
as §1, §2, §3, §4, §5

In assay [4] the target is Ba/F3-EGFR-V769_D770insASV cells (Homo sapiens, UniProt P00533, DUP767-769, cells depend on it). Briefly: Ba/F3 cell survival assay, EGFR V769_D770insASV. The following applies: without IL-3, without EGF, 48 h; read-out: BA/F3 (ASV) IC50. As to the method: as §1, §2, §3, §4, §5
In another assay the target is Ba/F3-EGFR-insSVD cells (Homo sapiens, UniProt P00533, DUP768-770, cells depend on it). Briefly: Ba/F3 cell survival assay (Cell Titer-Glo), EGFR-insSVD. The settings on record: without IL-3, with 10 ng/mL EGF, 48 h; read-out: BA/F3 (insSVD) IC50. The essentials:
as §6

Ba/F3-EGFR-N771_P772insH cells, sequence (P00533 with tags, fused parts or gaps INS771H): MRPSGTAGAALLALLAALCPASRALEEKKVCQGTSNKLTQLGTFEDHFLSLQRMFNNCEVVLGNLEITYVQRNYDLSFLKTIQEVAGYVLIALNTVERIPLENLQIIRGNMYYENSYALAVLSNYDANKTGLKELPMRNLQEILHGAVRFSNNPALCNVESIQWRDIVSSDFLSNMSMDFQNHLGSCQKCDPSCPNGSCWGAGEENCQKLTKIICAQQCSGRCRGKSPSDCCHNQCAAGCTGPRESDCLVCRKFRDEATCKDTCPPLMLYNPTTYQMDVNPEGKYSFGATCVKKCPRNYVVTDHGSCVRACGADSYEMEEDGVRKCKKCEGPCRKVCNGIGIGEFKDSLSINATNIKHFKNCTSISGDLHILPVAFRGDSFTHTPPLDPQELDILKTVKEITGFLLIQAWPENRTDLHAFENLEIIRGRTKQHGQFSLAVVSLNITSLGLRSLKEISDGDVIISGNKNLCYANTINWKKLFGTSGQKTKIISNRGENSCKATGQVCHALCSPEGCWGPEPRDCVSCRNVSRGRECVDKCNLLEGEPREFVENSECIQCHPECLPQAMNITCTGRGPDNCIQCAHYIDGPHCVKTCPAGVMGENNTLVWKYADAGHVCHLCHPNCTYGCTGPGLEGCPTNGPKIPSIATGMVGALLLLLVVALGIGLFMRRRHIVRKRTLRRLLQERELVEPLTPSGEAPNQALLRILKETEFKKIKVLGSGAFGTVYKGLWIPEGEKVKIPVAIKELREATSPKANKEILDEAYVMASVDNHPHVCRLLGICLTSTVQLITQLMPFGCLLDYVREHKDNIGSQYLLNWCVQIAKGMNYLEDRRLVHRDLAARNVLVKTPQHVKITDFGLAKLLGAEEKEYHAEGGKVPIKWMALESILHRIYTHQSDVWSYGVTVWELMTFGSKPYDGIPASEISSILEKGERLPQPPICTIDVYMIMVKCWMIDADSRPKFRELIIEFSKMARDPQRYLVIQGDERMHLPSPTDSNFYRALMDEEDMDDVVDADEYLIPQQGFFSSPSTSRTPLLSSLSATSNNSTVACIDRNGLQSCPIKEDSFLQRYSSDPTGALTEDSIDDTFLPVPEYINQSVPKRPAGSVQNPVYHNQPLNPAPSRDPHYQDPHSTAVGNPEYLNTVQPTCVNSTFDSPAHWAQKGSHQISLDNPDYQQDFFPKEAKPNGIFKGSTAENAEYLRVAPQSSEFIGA
Ba/F3-EGFR-WT cells, sequence (P00533 whole entry, stated change not applied): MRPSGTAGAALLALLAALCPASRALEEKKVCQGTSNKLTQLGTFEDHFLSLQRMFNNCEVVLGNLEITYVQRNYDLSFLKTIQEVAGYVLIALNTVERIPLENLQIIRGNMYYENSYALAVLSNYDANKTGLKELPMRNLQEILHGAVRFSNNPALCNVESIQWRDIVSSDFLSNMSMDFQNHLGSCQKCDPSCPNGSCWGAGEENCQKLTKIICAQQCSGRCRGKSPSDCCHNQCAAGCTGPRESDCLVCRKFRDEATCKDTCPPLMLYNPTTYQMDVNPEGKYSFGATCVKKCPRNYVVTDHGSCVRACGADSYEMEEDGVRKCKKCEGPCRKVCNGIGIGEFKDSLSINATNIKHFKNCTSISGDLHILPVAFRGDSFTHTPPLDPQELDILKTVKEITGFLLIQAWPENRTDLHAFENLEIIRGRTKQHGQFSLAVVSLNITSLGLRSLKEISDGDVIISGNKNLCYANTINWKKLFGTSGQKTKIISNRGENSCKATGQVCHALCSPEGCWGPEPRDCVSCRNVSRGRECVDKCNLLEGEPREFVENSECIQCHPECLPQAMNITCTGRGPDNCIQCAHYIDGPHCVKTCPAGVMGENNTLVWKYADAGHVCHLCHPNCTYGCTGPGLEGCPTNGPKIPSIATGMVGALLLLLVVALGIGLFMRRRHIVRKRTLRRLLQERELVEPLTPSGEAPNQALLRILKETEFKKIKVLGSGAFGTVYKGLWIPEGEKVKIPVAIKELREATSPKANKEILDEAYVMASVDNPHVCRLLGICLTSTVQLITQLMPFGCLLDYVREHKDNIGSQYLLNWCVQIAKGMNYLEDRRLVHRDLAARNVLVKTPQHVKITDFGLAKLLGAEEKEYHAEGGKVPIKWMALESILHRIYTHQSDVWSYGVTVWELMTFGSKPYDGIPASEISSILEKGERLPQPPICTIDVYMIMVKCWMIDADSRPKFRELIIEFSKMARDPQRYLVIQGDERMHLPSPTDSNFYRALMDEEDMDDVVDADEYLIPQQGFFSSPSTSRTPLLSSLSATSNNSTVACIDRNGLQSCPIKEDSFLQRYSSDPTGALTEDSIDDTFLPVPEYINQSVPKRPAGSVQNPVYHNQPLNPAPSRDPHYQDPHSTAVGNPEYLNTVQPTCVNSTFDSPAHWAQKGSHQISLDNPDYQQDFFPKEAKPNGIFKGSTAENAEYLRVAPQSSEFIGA
Ba/F3-EGFR-D770_N771insNPG cells, sequence (P00533 with tags, fused parts or gaps INS772GNP): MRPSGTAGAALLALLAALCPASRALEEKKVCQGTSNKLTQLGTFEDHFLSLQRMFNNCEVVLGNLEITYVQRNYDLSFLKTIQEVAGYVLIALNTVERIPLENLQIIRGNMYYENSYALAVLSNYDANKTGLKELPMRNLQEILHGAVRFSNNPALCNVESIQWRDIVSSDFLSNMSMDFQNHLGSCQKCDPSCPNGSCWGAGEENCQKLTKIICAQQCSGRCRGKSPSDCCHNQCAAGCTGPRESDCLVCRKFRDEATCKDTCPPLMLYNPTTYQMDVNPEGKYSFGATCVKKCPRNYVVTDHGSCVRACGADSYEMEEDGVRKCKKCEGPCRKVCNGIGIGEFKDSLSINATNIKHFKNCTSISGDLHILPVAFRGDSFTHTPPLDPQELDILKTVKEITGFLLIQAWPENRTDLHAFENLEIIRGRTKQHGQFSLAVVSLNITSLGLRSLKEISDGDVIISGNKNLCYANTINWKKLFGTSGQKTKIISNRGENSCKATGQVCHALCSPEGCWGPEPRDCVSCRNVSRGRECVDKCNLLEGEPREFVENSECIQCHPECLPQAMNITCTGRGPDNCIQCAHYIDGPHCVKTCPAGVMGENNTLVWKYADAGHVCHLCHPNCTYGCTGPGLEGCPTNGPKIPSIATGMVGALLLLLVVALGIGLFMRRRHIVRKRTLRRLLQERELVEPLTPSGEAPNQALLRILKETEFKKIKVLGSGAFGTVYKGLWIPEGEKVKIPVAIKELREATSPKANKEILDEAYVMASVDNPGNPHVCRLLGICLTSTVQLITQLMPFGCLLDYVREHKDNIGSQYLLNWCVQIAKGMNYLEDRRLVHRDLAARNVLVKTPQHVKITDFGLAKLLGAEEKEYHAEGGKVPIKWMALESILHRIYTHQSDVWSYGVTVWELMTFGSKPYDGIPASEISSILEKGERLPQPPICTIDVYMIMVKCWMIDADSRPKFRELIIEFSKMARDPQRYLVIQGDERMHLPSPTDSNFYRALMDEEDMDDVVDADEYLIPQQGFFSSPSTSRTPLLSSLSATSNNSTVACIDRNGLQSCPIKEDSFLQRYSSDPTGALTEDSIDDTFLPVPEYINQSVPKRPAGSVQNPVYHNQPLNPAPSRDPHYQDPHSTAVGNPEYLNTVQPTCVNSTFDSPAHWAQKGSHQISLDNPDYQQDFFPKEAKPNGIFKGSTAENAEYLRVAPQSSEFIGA
Ba/F3-EGFR-insSVD cells, sequence (P00533 with tags, fused parts or gaps DUP768-770): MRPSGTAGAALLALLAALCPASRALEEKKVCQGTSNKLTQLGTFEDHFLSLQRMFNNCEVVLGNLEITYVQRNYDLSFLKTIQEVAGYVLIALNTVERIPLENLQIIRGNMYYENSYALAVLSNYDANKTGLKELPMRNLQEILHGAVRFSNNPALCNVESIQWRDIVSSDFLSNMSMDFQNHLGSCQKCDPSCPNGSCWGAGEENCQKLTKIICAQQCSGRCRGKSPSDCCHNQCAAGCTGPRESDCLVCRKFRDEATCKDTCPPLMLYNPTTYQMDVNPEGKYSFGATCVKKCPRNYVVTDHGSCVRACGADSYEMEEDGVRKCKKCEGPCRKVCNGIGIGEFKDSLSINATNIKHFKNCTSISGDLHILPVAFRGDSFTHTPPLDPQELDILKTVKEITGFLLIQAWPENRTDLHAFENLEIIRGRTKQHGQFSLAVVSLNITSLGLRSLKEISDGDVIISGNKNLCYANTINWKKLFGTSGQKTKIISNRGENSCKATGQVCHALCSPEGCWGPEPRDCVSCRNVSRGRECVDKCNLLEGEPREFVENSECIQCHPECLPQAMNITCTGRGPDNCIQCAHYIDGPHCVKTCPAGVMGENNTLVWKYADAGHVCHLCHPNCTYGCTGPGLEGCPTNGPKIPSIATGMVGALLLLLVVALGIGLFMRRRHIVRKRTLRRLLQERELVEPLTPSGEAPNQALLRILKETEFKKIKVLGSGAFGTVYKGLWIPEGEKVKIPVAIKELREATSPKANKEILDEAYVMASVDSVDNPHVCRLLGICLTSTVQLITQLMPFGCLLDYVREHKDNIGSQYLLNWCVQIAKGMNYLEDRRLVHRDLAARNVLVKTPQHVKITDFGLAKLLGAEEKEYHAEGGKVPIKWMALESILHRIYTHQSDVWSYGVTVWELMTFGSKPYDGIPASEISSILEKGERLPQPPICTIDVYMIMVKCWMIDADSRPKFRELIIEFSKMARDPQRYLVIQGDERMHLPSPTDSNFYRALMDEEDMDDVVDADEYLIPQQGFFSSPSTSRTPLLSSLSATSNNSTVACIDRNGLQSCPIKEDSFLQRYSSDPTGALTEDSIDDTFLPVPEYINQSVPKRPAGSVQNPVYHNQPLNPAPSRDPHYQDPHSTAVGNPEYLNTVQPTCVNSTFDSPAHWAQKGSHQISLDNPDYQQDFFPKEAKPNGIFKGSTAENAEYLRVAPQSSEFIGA

As to `COc1c(Cl)cccc1Nc1c(-c2ccncc2OC[C@@H]2COCCO2)[nH]c2c1C(=O)NCC2` (single isomer, unassigned) [Example 2], the GI50 stood at 7.48 nM in assay [1]; 28.2 nM in assay [2]; 292 nM on Ba/F3-EGFR-WT cells; 4.44 nM in assay [3]; 4.66 nM in assay [4]; 7.12 nM at Ba/F3-EGFR-insSVD cells.
As to `COc1c(Cl)cccc1Nc1c(-c2ccncc2OCC2COC(C)(C)CO2)[nH]c2c1C(=O)NCC2` (single isomer, unassigned) [Example 32, 3-(3-chloro-2-methoxyanilino)-2-{3-[(5,5-dimethyl-1,4-dioxan-2-yl)methoxy]pyridin-4-yl}-1,5,6,7-tetrahydro-4H-pyrrolo[3,2-c]pyridin-4-one], the GI50 came out at 11 nM in assay [1], 47.3 nM in assay [2], 9.38 nM in assay [3] and 13.2 nM in assay [4].
As for `O=C1NCCc2[nH]c(-c3ccncc3OCC3COCCO3)c(Nc3cccc(Cl)c3Cl)c21` (single isomer, unassigned) [Example 8, 3-(2,3-dichloroanilino)-2-{3-[(1,4-dioxan-2-yl)methoxy]pyridin-4-yl}-1,5,6,7-tetrahydro-4H-pyrrolo[3,2-c]pyridin-4-one], the GI50 stood at 4.91 nM in assay [1]; 23.1 nM in assay [2]; 121 nM at Ba/F3-EGFR-WT cells; 11.6 nM in assay [3]; 9.62 nM in assay [4]; 8.18 nM on Ba/F3-EGFR-insSVD cells.
As to `CCc1c(Cl)cccc1Nc1c(-c2ccncc2OC[C@@H]2CN(C)CCO2)[nH]c2c1C(=O)NCC2` [Example 56, 3-(3-chloro-2-ethylanilino)-2-(3-{[(2S)-4-methylmorpholin-2-yl]methoxy}pyridin-4-yl)-1,5,6,7-tetrahydro-4H-pyrrolo[3,2-c]pyridin-4-one], the GI50 in assay [1] is 7.36 nM; in assay [2], 48.9 nM; on Ba/F3-EGFR-WT cells it was 435 nM; in assay [3] it was 6.96 nM; in assay [4], 14.1 nM; on Ba/F3-EGFR-insSVD cells, 11.9 nM.
On to `COc1c(F)cccc1Nc1c(-c2ccncc2OCC2COCCO2)[nH]c2c1C(=O)NCC2` (single isomer, unassigned) [Example 5, 2-{3-[(1,4-dioxan-2-yl)methoxy]pyridin-4-yl}-3-(3-fluoro-2-methoxyanilino)-1,5,6,7-tetrahydro-4H-pyrrolo[3,2-c]pyridin-4-one], for which the GI50 in assay [1] was 11.5 nM; in assay [2], 79.3 nM; at Ba/F3-EGFR-WT cells it was 262 nM; in assay [3], 26.3 nM; in assay [4], 28.7 nM; at Ba/F3-EGFR-insSVD cells, 9.73 nM.
`Cc1c(Cl)cccc1Nc1c(-c2ccncc2OC[C@@H]2CN(C)CCO2)[nH]c2c1C(=O)NCC2` [Example 42, 3-(3-chloro-2-methylanilino)-2-(3-{[(2S)-4-methylmorpholin-2-yl]methoxy}pyridin-4-yl)-1,5,6,7-tetrahydro-4H-pyrrolo[3,2-c]pyridin-4-one]: the GI50 stood at 6.01 nM in assay [1]; 48.5 nM in assay [2]; 596 nM on Ba/F3-EGFR-WT cells; 12 nM in assay [3]; 14.1 nM in assay [4]; 19.8 nM on Ba/F3-EGFR-insSVD cells.
With `Cc1c(F)cccc1Nc1c(-c2ccncc2OCC2COCCO2)[nH]c2c1C(=O)NCC2` (single isomer, unassigned) [Example 48, 2-[3-(1,4-dioxan-2-ylmethoxy)-4-pyridyl]-3-(3-fluoro-2-methyl-anilino)-1,5,6,7-tetrahydropyrrolo[3,2-c]pyridin-4-one], the GI50 in assay [1] was 17.6 nM; in assay [2] it was 142 nM; on Ba/F3-EGFR-WT cells, 379 nM; in assay [3], 42.4 nM; in assay [4], 41.8 nM; at Ba/F3-EGFR-insSVD cells, 18.8 nM.
Regarding `Cc1c(Cl)cccc1Nc1c(-c2ccncc2OC[C@H]2COCCO2)[nH]c2c1C(=O)NCC2` (single isomer, unassigned) [Example 50], the GI50 in assay [1] was found to be 7.42 nM; in assay [2], 40.3 nM; at Ba/F3-EGFR-WT cells, 361 nM; in assay [3], 11.3 nM; in assay [4], 10.4 nM; at Ba/F3-EGFR-insSVD cells, 8.82 nM.
Take `COc1c(Cl)cccc1Nc1c(-c2ccncc2OC[C@@H]2COCCN2C)[nH]c2c1C(=O)NCC2` [Example 21, 3-(3-chloro-2-methoxyanilino)-2-(3-{[(3S)-4-methylmorpholin-3-yl]methoxy}pyridin-4-yl)-1,5,6,7-tetrahydro-4H-pyrrolo[3,2-c]pyridin-4-one]: the GI50 was 4.22 nM in assay [1]; 27.6 nM in assay [2]; 341 nM on Ba/F3-EGFR-WT cells; 5.65 nM in assay [3]; 7.78 nM in assay [4]; 3.49 nM at Ba/F3-EGFR-insSVD cells.
On to `COc1c(F)cccc1Nc1c(-c2ccncc2OC[C@@H]2COCCN2C)[nH]c2c1C(=O)NCC2` [Example 20, 3-(3-fluoro-2-methoxyanilino)-2-(3-{[(3S)-4-methylmorpholin-3-yl]methoxy}pyridin-4-yl)-1,5,6,7-tetrahydro-4H-pyrrolo[3,2-c]pyridin-4-one], for which the GI50 in assay [1] turned out to be 6.59 nM; in assay [2] it was 56.7 nM; at Ba/F3-EGFR-WT cells it was 313 nM; in assay [3] it was 14.7 nM; in assay [4], 11.7 nM; at Ba/F3-EGFR-insSVD cells, 8.25 nM.
With `Cc1c(Cl)cccc1Nc1c(-c2ccncc2OCC2COC(C)(C)CO2)[nH]c2c1C(=O)NCC2` (single isomer, unassigned) [Example 46, 3-(3-chloro-2-methyl-anilino)-2-[3-[(5,5-dimethyl-1,4-dioxan-2-yl)methoxy]-4-pyridyl]-1,5,6,7-tetrahydropyrrolo[3,2-c]pyridin-4-one], the GI50 was 5.77 nM in assay [1]; 38.9 nM in assay [2]; 376 nM on Ba/F3-EGFR-WT cells; 14.3 nM in assay [3]; 11.7 nM in assay [4]; 10.1 nM on Ba/F3-EGFR-insSVD cells.
Regarding `COc1c(F)cccc1Nc1c(-c2ccncc2OCC2CN(C)CCO2)[nH]c2c1C(=O)NCC2` (single isomer, unassigned) [Example 14, 3-(3-fluoro-2-methoxyanilino)-2-{3-[(4-methylmorpholin-2-yl)methoxy]pyridin-4-yl}-1,5,6,7-tetrahydro-4H-pyrrolo[3,2-c]pyridin-4-one], the GI50 was 7.6 nM in assay [1]; 65.8 nM in assay [2]; 387 nM at Ba/F3-EGFR-WT cells; 12.5 nM in assay [3]; 16.4 nM in assay [4]; 10.5 nM on Ba/F3-EGFR-insSVD cells.
